Consider 42 molecules from patent US10696672B2 (Pliant Therapeutics, Inc., priority 2016, dated 2020).

Bounds are passed on as bounds.

This assay addresses recombinant human integrin αvβ6 (Homo sapiens (Human), UniProt P06756+P18564). Briefly: Solid phase integrin αvβ6 binding assay. The settings on record: plate-coated integrin; recombinant TGFβ1 LAP 0.67 ug/ml as ligand; 2 hours at 25° C.; read-out: αvβ6 Inhibition IC50 (nM) - range. The essentials: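 Plates coated with recombinant human αvβ6 (2 ug/ml); compounds and TGFβ1 LAP (0.67 ug/ml) incubated 2 h at 25° C in TBS buffer with 0.5 mM MnCl2. Bound LAP detected with biotin-anti-hLAP and peroxidase-streptavidin; IC50 from four-parameter logistic fit.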

Sequence of recombinant human integrin αvβ6 (P06756 31-992): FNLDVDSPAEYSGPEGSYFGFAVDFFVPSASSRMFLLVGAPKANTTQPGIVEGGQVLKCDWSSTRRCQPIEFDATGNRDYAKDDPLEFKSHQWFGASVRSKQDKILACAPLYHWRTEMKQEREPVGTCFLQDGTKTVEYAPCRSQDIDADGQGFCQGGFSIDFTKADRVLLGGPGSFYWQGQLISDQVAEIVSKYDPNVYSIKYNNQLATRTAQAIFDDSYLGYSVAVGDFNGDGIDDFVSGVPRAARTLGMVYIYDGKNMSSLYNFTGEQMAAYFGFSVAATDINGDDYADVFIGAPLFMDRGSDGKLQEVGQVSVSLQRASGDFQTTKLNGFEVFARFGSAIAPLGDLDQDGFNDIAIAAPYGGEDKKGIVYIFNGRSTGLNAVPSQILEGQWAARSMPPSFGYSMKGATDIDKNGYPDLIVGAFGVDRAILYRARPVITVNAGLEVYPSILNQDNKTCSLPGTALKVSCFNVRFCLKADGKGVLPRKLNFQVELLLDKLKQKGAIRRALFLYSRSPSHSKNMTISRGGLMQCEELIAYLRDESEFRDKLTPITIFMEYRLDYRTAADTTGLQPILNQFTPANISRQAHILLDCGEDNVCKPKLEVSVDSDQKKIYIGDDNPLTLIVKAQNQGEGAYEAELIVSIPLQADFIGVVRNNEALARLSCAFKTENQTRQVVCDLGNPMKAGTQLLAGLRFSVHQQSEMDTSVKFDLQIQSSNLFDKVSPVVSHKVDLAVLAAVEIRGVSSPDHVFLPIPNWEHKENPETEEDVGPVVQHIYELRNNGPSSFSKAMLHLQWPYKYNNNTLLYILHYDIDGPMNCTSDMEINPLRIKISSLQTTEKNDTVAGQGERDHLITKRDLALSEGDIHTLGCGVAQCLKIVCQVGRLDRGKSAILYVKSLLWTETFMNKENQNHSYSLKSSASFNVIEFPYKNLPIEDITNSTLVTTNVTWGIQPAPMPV
Sequence of recombinant human integrin αvβ6 (P18564 22-707): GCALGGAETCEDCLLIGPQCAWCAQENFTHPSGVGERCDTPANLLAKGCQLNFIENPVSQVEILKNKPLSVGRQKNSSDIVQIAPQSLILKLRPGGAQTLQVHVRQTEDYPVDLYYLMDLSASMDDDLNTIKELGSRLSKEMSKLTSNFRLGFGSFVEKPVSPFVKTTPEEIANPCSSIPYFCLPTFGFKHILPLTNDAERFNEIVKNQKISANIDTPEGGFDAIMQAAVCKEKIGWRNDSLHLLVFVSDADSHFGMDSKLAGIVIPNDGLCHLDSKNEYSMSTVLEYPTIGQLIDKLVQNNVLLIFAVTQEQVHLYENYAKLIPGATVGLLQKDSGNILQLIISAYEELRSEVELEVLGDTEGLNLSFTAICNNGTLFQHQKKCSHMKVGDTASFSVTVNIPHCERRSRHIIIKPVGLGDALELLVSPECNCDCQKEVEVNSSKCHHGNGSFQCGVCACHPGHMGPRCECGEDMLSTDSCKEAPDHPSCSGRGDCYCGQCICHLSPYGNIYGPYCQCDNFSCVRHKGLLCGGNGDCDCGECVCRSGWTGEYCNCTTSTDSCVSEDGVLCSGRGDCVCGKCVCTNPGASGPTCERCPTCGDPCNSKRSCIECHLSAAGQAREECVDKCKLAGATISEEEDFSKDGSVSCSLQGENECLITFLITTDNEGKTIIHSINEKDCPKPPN

Broadly, the IC50 is the concentration that inhibits the measured activity by half. Turning to `Cn1ncc2ccc(C(=O)N[C@@H](CCN3CCC[C@@](F)(CCc4ccc5c(n4)NCCC5)C3)C(=O)O)cc21` [Compound 106], the IC50 fell in the range of 50 to 250 nM.

Regarding `O=C(N[C@@H](CCN1CCC[C@@](F)(CCc2ccc3c(n2)NCCC3)C1)C(=O)O)C1CCC(F)(F)CC1` [Compound 107], the IC50 was in the range of 50 to 250 nM. Regarding `CCC(CC)C(=O)N[C@@H](CCN1CCC[C@](F)(CCc2ccc3c(n2)NCCC3)C1)C(=O)O` [Compound 108], the 50% inhibitory concentration (IC50) lay in the range of 250 to 1000 nM. The figure for `O=C(N[C@@H](CCN1CCC[C@](F)(CCc2ccc3c(n2)NCCC3)C1)C(=O)O)C1CCC(F)(F)CC1` [Compound 109] is 50 to 250 nM. Under `Cn1ncc2ccc(C(=O)N[C@@H](CCN3CCC[C@](F)(CCc4ccc5c(n4)NCCC5)C3)C(=O)O)cc21` [Compound 110] stands below 50 nM. Under `CC(C)(C)OC(=O)N[C@@H](CCN1CC[C@@H](OCc2ccc3c(n2)NCCC3)C1)C(=O)O` [Compound 111] stands above 1000 nM; under `O=C(N[C@@H](CCN1CC[C@@H](OCc2ccc3c(n2)NCCC3)C1)C(=O)O)c1ccccc1` [Compound 112], above 1000 nM.

Regarding `Cc1cc(C)n(-c2cccc(C(=O)N[C@@H](CCN3CC[C@@H](OCc4ccc5c(n4)NCCC5)C3)C(=O)O)c2)n1` [Compound 113], the IC50 was above 1000 nM.

Regarding `O=C(N[C@@H](CCN1CC[C@@H](OCCc2ccc3c(n2)NCCC3)C1)C(=O)O)c1c(Cl)cccc1Cl` [Compound 114], the IC50 fell in the range of 250 to 1000 nM. As to `O=C(N[C@@H](CCN1CC(OCCc2ccc3c(n2)NCCC3)C1)C(=O)O)c1c(Cl)cccc1Cl` [Compound 115], the IC50 is below 50 nM. On to `CC(=O)N1CCN(CC[C@H](NC(=O)c2ccccc2)C(=O)O)C[C@@H]1CCc1ccc2c(n1)NCCC2` [Compound 116], for which the IC50 is above 1000 nM. On to `O=C(N[C@@H](CCN1CC[C@@H](OCCc2ccc3c(n2)NCCC3)C1)C(=O)O)C1CCOCC1` [Compound 117], for which the concentration for half-maximal inhibition (IC50) lay in the range of 250 to 1000 nM. Under `CC(C)(C(=O)N[C@@H](CCN1CC[C@@H](OCCc2ccc3c(n2)NCCC3)C1)C(=O)O)c1ccccc1` [Compound 118] stands 250 to 1000 nM.

Regarding `CC(C)(Cc1ccccc1)C(=O)N[C@@H](CCN1CC[C@@H](OCCc2ccc3c(n2)NCCC3)C1)C(=O)O` [Compound 119], the IC50 fell in the range of 250 to 1000 nM. Under `CC(C)(C(=O)N[C@@H](CCN1CC(OCCc2ccc3c(n2)NCCC3)C1)C(=O)O)c1ccccc1` [Compound 120] stands 50 to 250 nM. As to `O=C(O)[C@H](CCN1CC[C@@H](OCCc2ccc3c(n2)NCCC3)C1)NC(=O)[C@@H]1CCCN1Cc1ccccc1` [Compound 121], the IC50 lay in the range of 250 to 1000 nM. The figure for `CC(C)(C(=O)N[C@@H](CCN1CC[C@@H](OCCc2ccc3c(n2)NCCC3)C1)C(=O)O)c1cccnc1` [Compound 122] is 250 to 1000 nM; for `O=C(O)[C@H](CCN1CC(OCCc2ccc3c(n2)NCCC3)C1)NC(=O)[C@@H]1CCCN1Cc1ccccc1` [Compound 123] it is below 50 nM; for `O=C(N[C@@H](CCN1CC(OCCc2ccc3c(n2)NCCC3)C1)C(=O)O)C1CCOCC1` [Compound 124] it is 50 to 250 nM. In the case of `O=C(N[C@@H](CCN1CC[C@@H](OCCc2ccc3c(n2)NCCC3)C1)C(=O)O)[C@@H]1CCN(c2ccccn2)C1` [Compound 125], the IC50 lay in the range of 250 to 1000 nM.

Regarding `O=C(N[C@@H](CCN1CC[C@@H](OCCc2ccc3c(n2)NCCC3)C1)C(=O)O)[C@H]1CCN(c2ccccn2)C1` [Compound 126], the IC50 is above 1000 nM. Under `O=C(O)[C@H](CCN1CC(OCCc2ccc3c(n2)NCCC3)C1)NC(=O)[C@@H]1CCCN1c1ccccc1` [Compound 127] stands below 50 nM; under `CC(C)(C(=O)N[C@@H](CCN1CC(OCCc2ccc3c(n2)NCCC3)C1)C(=O)O)c1cccnc1` [Compound 128], 250 to 1000 nM; under `O=C(O)[C@H](CCN1CC(CCc2ccc3c(n2)NCCC3)C1)NC(=O)[C@@H]1CCCN1c1ccccc1` [Compound 129], 250 to 1000 nM. Consider `CC(C)(Cc1ccccc1)C(=O)N[C@@H](CCN1CC(OCCc2ccc3c(n2)NCCC3)C1)C(=O)O` [Compound 130], for which the IC50 is 250 to 1000 nM.

On to `O=C(N[C@@H](CCN1CC(OCCc2ccc3c(n2)NCCC3)C1)C(=O)O)[C@@H]1CCN(c2ccccn2)C1` [Compound 131], for which the IC50 was in the range of 50 to 250 nM. Under `O=C(N[C@@H](CCN1CC(OCCc2ccc3c(n2)NCCC3)C1)C(=O)O)[C@H]1CCN(c2ccccn2)C1` [Compound 132] stands 50 to 250 nM; under `O=C(O)[C@H](CCN1CC[C@@H](OCCc2ccc3c(n2)NCCC3)C1)NC(=O)[C@@H]1CCCN1c1ccccc1` [Compound 133], 250 to 1000 nM. The figure for `CC(C)(O)CC1NCCC1C(=O)N[C@@H](CCN1CC(OCCc2ccc3c(n2)NCCC3)C1)C(=O)O` (stereo partly drawn) [Compound 134] is 250 to 1000 nM.

For `O=C(N[C@@H](CCN1CC(CCc2ccc3c(n2)NCCC3)C1)C(=O)O)C1CCCN1Cc1ccccc1` (stereo partly drawn) [Compound 135], the concentration for half-maximal inhibition (IC50) was above 1000 nM.

`CC(C)(C(=O)N[C@@H](CCN1CC(CCc2ccc3c(n2)NCCC3)C1)C(=O)O)c1ccccc1` [Compound 136]: the IC50 is above 1000 nM.

As to `CC(C)(Cc1ccccc1)C(=O)N[C@@H](CCN1CC(CCc2ccc3c(n2)NCCC3)C1)C(=O)O` [Compound 137], the IC50 was above 1000 nM. Regarding `O=C(N[C@@H](CCN1CC(CCc2ccc3c(n2)NCCC3)C1)C(=O)O)[C@H]1CCN(c2ccccn2)C1` [Compound 138], the IC50 was in the range of 250 to 1000 nM. With `O=C(N[C@@H](CCN1CC(CCc2ccc3c(n2)NCCC3)C1)C(=O)O)c1c(Cl)cccc1Cl` [Compound 139], the IC50 lay within 250 to 1000 nM. `O=C(N[C@@H](CCN1C2CCC1C(CCc1ccc3c(n1)NCCC3)C2)C(=O)O)c1cc(F)cc(C(F)(F)F)c1` (stereo partly drawn) [Compound 140]: the IC50 was above 1000 nM.

With `O=C(N[C@@H](CCN1C2CCC1C(CCc1ccc3c(n1)NCCC3)C2)C(=O)O)c1cc(F)cc(C(F)(F)F)c1` (stereo partly drawn) [Compound 141], the IC50 was below 50 nM.

As to `CC(C)(O)CN1CCC[C@H]1C(=O)N[C@@H](CCN1CC[C@@H](OCCc2ccc3c(n2)NCCC3)C1)C(=O)O` [Compound 142], the IC50 is above 1000 nM. Under `O=C(O)[C@H](CCN1CC(CCc2ccc3c(n2)NCCC3)C1)NC(=O)[C@@H]1CCNC1Cc1ccccc1` (stereo partly drawn) [Compound 143] stands above 1000 nM. The figure for `CC(C)(C(=O)N[C@@H](CCN1CC(CCc2ccc3c(n2)NCCC3)C1)C(=O)O)c1cccnc1` [Compound 144] is above 1000 nM.

For `CCC(CC)C(=O)N[C@@H](CCN1C2CCC1C(CCc1ccc3c(n1)NCCC3)C2)C(=O)O` (stereo partly drawn) [Compound 145], the IC50 is above 1000 nM. Under `O=C(N[C@@H](CCN1CC[C@H](CCc2ccc3c(n2)NCCC3)C1)C(=O)O)c1c(Cl)cccc1Cl` [Compound 146] stands below 50 nM; under `O=C(N[C@H](CCN1CC[C@H](CCc2ccc3c(n2)NCCC3)C1)C(=O)O)c1c(Cl)cccc1Cl` [Compound 147], above 1000 nM.
